Eight molecules from ChEMBL document CHEMBL3867424, “Exploring the readthrough of nonsense mutations by non-acidic Ataluren analogues selected by ligand-based virtual screening” (Eur J Med Chem, 2016) can be followed below.

Activity calls are given as the source filed them. No cut-off for these calls is given here.

A short description of data set [1]: Cytotoxicity against human HeLa cells assessed as reduction in cell viability at 12 uM measured after 24 to 72 hrs. It counts as toxicity, cell-based.
Data set [2] deals with IB3-1. The data set is described as follows: Binding affinity to CFTR mRNA UGA mutant in human IB3-1 cells carrying W1282X mutation in CFTR gene assessed as increase in CFTR expression measured after 24 to 72 hrs by Western blot analysis. It counts as cell-based. A general note: Immunoblotting shows a protein as a band on a membrane.
Another data set relates to HeLa. As to the kind of experiment: Binding affinity to Photinus pyralis luciferase mRNA harboring the UGA premature stop codon expressed in human HeLa cells assessed as suppression of nonsense mutations by read-through of premature stop codon at 12 uM measured after 24 hrs by luminescence analysis. In kind it is cell-based.
Data set [3] in a line: Cytotoxicity against human HeLa cells assessed as reduction in cell viability at 300 ug/ml measured after 24 to 72 hrs. In kind it is toxicity, cell-based.
For data set [4], the system named is IB3-1. As to the kind of experiment: Binding affinity to CFTR mRNA UGA mutant in human IB3-1 cells carrying W1282X mutation in CFTR gene assessed as suppression of nonsense mutations by read-through of UGA premature stop codon measured as localization of CFTR in cell membrane after 24 hrs by DAPI/Alexa-488/WGA-Alexa594 staining-based immunofluorescence analysis. In kind it is cell membranes.

Data set [5] relates to IB3-1. The data set is described as follows: Binding affinity to CFTR mRNA UGA mutant in human IB3-1 cells carrying W1282X mutation in CFTR gene assessed as suppression of nonsense mutations by read-through of UGA premature stop codon measured as induction of CFTR re-expression after 24 hrs by DAPI/Alexa-488/WGA-Alexa594 staining-based immunofluorescence analysis. In kind it is cell-based.

Take `Cc1cccc(-c2nc(-c3cccnc3)no2)c1`: the Activity result in data set [1] is “Non-Toxic”. As for `Cc1cccc(-c2nc(-c3ccccc3)no2)c1`, in data set [1], the Activity result is reported as “Non-Toxic”.

In the case of `O=C(O)c1cccc(-c2noc(-c3ccccc3F)n2)c1` [ATALUREN], the result with IB3-1 [2] and in the data set on HeLa was Active. In addition, the Activity result in data set [1] is listed as “Non-Toxic”. For `Cc1cccc(-c2noc(-c3ccccc3C)n2)c1`, the Activity entry in data set [1] is given as “Non-Toxic”. On to `CN[C@@H]1[C@@H](O)[C@@H](O[C@H]2[C@H](O)[C@@H](O[C@H]3O[C@H](C(C)O)[C@@H](O)[C@H](O)[C@H]3N)[C@H](N)C[C@@H]2N)OC[C@]1(C)O` (some centres undefined), for which the Activity result in data set [3] is “Toxic”.

On to `N#Cc1cccc(-c2nc(-c3ccccn3)no2)c1`, for which the Activity entry in data set [1] is on record as “Non-Toxic”. For the molecule `Cc1cccc(-c2nc(-c3ccncc3)no2)c1`, the Activity entry in data set [1] is “Non-Toxic”.

As to `Cc1cccc(-c2nc(-c3ccccn3)no2)c1`, the result with IB3-1 [4], with IB3-1 [2], in the data set with IB3-1 [5] and in the data set on HeLa was Active. The Activity entry in data set [1] is given as “Non-Toxic”.
